Reference: PubChem BioAssay AID2060882 (Molecular Pharmacology Branch, DTP, NCI, 2025)

Tested on: 898857-211-R-J1-PDC complex spheroids, growth % test/control
Experiment: Anticancer human tumor 898857-211-R-J1-PDC patient-derived melanoma cell line growth inhibition [RAS]
Conditions: for IC50: curve of first compound; for viability, T/C: stronger effect = lower value
How it was run: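 Tumour cells grown as complex spheroids with HUVEC endothelial cells and mesenchymal stem cells, treated with RAS pathway inhibitor combinations. Each agent spans half-log steps from near clinical Cmax, or 10 microM where Cmax is unknown.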

[1] = second compound 0.000949 µM, first compound 0.0316 µM
[2] = second compound 0.000949 µM, first compound 0.1 µM
[3] = second compound 0.000949 µM, first compound 0.316 µM
[4] = second compound 0.000949 µM, first compound 1 µM
[5] = second compound 0.000949 µM, first compound 3.16 µM
[6] = second compound 0.000949 µM, first compound 10 µM
[7] = second compound 0.003 µM, first compound 0.0316 µM
[8] = second compound 0.003 µM, first compound 0.1 µM
[9] = second compound 0.003 µM, first compound 0.316 µM
[10] = second compound 0.003 µM, first compound 1 µM
[11] = second compound 0.003 µM, first compound 3.16 µM
[12] = second compound 0.003 µM, first compound 10 µM
[13] = second compound 0.00949 µM, first compound 0.0316 µM
[14] = second compound 0.00949 µM, first compound 0.1 µM
[15] = second compound 0.00949 µM, first compound 0.316 µM
[16] = second compound 0.00949 µM, first compound 1 µM
[17] = second compound 0.00949 µM, first compound 3.16 µM
[18] = second compound 0.00949 µM, first compound 10 µM
[19] = second compound 0.03 µM, first compound 0.0316 µM
[20] = second compound 0.03 µM, first compound 0.1 µM
[21] = second compound 0.03 µM, first compound 0.316 µM
[22] = second compound 0.03 µM, first compound 1 µM
[23] = second compound 0.03 µM, first compound 3.16 µM
[24] = second compound 0.03 µM, first compound 10 µM
[25] = second compound 0.0949 µM, first compound 0.0316 µM
[26] = second compound 0.0949 µM, first compound 0.1 µM
[27] = second compound 0.0949 µM, first compound 0.316 µM
[28] = second compound 0.0949 µM, first compound 1 µM
[29] = second compound 0.0949 µM, first compound 3.16 µM
[30] = second compound 0.0949 µM, first compound 10 µM
[31] = second compound 0.3 µM, first compound 0.0316 µM
[32] = second compound 0.3 µM, first compound 0.1 µM
[33] = second compound 0.3 µM, first compound 0.316 µM
[34] = second compound 0.3 µM, first compound 1 µM
[35] = second compound 0.3 µM, first compound 3.16 µM
[36] = second compound 0.3 µM, first compound 10 µM
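Further: spheroids exposed to compound for seven days before readout.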
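Wherever viability, T/C is given: 100% = DMSO vehicle control wells.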

In the case of Cc1nc(N2CCC3(CC2)COC(C)C3N)c(CO)nc1Sc1ccnc(N)c1Cl (stereo unspecified) + CCn1c(-c2cccnc2C(C)OC)c2c3cc(ccc31)N1CCOC(CC(NC(=O)C(C(C)C)N(C)C(=O)C3(F)CCN(C(=O)C#CC(C)(C)N(C)C)CC3)C(=O)N3CCCC(N3)C(=O)OCC(C)(C)C2)C1, the IC50 (second compound 0.000949 µM) is reported as > 10 µM, the IC50 (second compound 0.003 µM) is reported as > 10 µM and the IC50 (second compound 0.00949 µM) is reported as > 10 µM. The IC50 (second compound 0.03 µM) was > 10 µM, the IC50 (second compound 0.0949 µM) was > 10 µM and the IC50 (second compound 0.3 µM) was > 10 µM. For the same molecule, the viability, T/C [1] was 94.5%, the viability, T/C [2] was 94.9% and the viability, T/C [3] was 103%. It also gave a viability, T/C [4] of 98.8%, a viability, T/C [5] of 93.1% and a viability, T/C [6] of 90.6%. The viability, T/C [7] was 98.6%, the viability, T/C [8] was 98.5% and the viability, T/C [9] was 97.6%. It also gave a viability, T/C [10] of 95.7%, a viability, T/C [11] of 113% and a viability, T/C [12] of 93.4%. For the same molecule, the viability, T/C [13] was 99.7%, the viability, T/C [14] was 104% and the viability, T/C [15] was 107%. It also gave a viability, T/C [16] of 96%, a viability, T/C [17] of 92.3% and a viability, T/C [18] of 85.1%. The viability, T/C [19] was 93.2%, the viability, T/C [20] was 90.2% and the viability, T/C [21] was 96.8%. For the same molecule, the viability, T/C [22] was 109%, the viability, T/C [23] was 89.5% and the viability, T/C [24] was 92%. It also gave a viability, T/C [25] of 90.6%, a viability, T/C [26] of 100% and a viability, T/C [27] of 87.7%. It also gave a viability, T/C [28] of 96.3%, a viability, T/C [29] of 92% and a viability, T/C [30] of 88.6%. It also gave a viability, T/C [31] of 85.2%, a viability, T/C [32] of 82.7% and a viability, T/C [33] of 77.4%. It also gave a viability, T/C [34] of 76.9%, a viability, T/C [35] of 74.2% and a viability, T/C [36] of 69.5%.
NC1c2ccccc2OC12CCN(c1cnc3c(N4CCCc5ncccc54)n[nH]c3n1)CC2 (stereo unspecified) + CCn1c(-c2cccnc2C(C)OC)c2c3cc(ccc31)N1CCOC(CC(NC(=O)C(C(C)C)N(C)C(=O)C3(F)CCN(C(=O)C#CC(C)(C)N(C)C)CC3)C(=O)N3CCCC(N3)C(=O)OCC(C)(C)C2)C1 was tested, and the IC50 (second compound 0.000949 µM) was > 10 µM, the IC50 (second compound 0.003 µM) was > 10 µM and the IC50 (second compound 0.00949 µM) was > 10 µM. For the same molecule, the IC50 (second compound 0.03 µM) was > 10 µM, the IC50 (second compound 0.0949 µM) was > 10 µM and the IC50 (second compound 0.3 µM) was 7.88 µM. It also gave a viability, T/C [1] of 91.6%, a viability, T/C [2] of 94.3% and a viability, T/C [3] of 99.9%. The viability, T/C [4] was 90.7%, the viability, T/C [5] was 101% and the viability, T/C [6] was 70.9%. For the same molecule, the viability, T/C [7] was 95%, the viability, T/C [8] was 88.7% and the viability, T/C [9] was 90.4%. For the same molecule, the viability, T/C [10] was 90.9%, the viability, T/C [11] was 97.9% and the viability, T/C [12] was 67.8%. It also gave a viability, T/C [13] of 99%, a viability, T/C [14] of 106% and a viability, T/C [15] of 101%. For the same molecule, the viability, T/C [16] was 87.2%, the viability, T/C [17] was 89% and the viability, T/C [18] was 74.3%. For the same molecule, the viability, T/C [19] was 103%, the viability, T/C [20] was 100% and the viability, T/C [21] was 101%. For the same molecule, the viability, T/C [22] was 96.6%, the viability, T/C [23] was 95.1% and the viability, T/C [24] was 63.8%. It also gave a viability, T/C [25] of 82.9%, a viability, T/C [26] of 87.2% and a viability, T/C [27] of 97.7%. The viability, T/C [28] was 91.1%, the viability, T/C [29] was 84.8% and the viability, T/C [30] was 55.4%. The viability, T/C [31] was 73.3%, the viability, T/C [32] was 77.6% and the viability, T/C [33] was 67.9%. The viability, T/C [34] was 72.9%, the viability, T/C [35] was 72.6% and the viability, T/C [36] was 44.1%.
Nc1ccn(C2OC(CO)C(O)C2(F)F)c(=O)n1 (stereo unspecified) + CCn1c(-c2cccnc2C(C)OC)c2c3cc(ccc31)N1CCOC(CC(NC(=O)C(C(C)C)N(C)C(=O)C3(F)CCN(C(=O)C#CC(C)(C)N(C)C)CC3)C(=O)N3CCCC(N3)C(=O)OCC(C)(C)C2)C1 gave an IC50 (second compound 0.000949 µM) of 0.00676 µM, an IC50 (second compound 0.003 µM) of 0.00719 µM and an IC50 (second compound 0.00949 µM) of 0.0067 µM. For the same molecule, the IC50 (second compound 0.03 µM) was 0.00602 µM, the IC50 (second compound 0.0949 µM) was 0.00571 µM and the IC50 (second compound 0.3 µM) was 0.00359 µM. It also gave a viability, T/C (second compound 0.000949 µM, first compound 0.00316 µM) of 92.8%, a viability, T/C (second compound 0.000949 µM, first compound 0.01 µM) of 27.9% and a viability, T/C [1] of 5.77%. The viability, T/C [2] was 4.12%, the viability, T/C [3] was 5.73% and the viability, T/C [4] was 5.16%. For the same molecule, the viability, T/C (second compound 0.003 µM, first compound 0.00316 µM) was 100%, the viability, T/C (second compound 0.003 µM, first compound 0.01 µM) was 29.9% and the viability, T/C [7] was 6.22%. It also gave a viability, T/C [8] of 5.43%, a viability, T/C [9] of 4.28% and a viability, T/C [10] of 4.09%. For the same molecule, the viability, T/C (second compound 0.00949 µM, first compound 0.00316 µM) was 95.7%, the viability, T/C (second compound 0.00949 µM, first compound 0.01 µM) was 25.6% and the viability, T/C [13] was 5.43%. It also gave a viability, T/C [14] of 3.4%, a viability, T/C [15] of 4.91% and a viability, T/C [16] of 4.53%. The viability, T/C (second compound 0.03 µM, first compound 0.00316 µM) was 86.8%, the viability, T/C (second compound 0.03 µM, first compound 0.01 µM) was 21% and the viability, T/C [19] was 4.86%. It also gave a viability, T/C [20] of 4.53%, a viability, T/C [21] of 4.23% and a viability, T/C [22] of 3.48%. For the same molecule, the viability, T/C (second compound 0.0949 µM, first compound 0.00316 µM) was 86%, the viability, T/C (second compound 0.0949 µM, first compound 0.01 µM) was 15.7% and the viability, T/C [25] was 4.15%. The viability, T/C [26] was 3.36%, the viability, T/C [27] was 3.77% and the viability, T/C [28] was 4.54%. It also gave a viability, T/C (second compound 0.3 µM, first compound 0.00316 µM) of 54.6%, a viability, T/C (second compound 0.3 µM, first compound 0.01 µM) of 12.4% and a viability, T/C [31] of 3.88%. It also gave a viability, T/C [32] of 3.1%, a viability, T/C [33] of 3.62% and a viability, T/C [34] of 2.98%.
